# Measured values as given in article PMC4184702 (Pharmacology Research & Perspectives, 2014).
# Entries after “also recorded” stand apart in the source; their conditions may differ.
# Assays:
# D1 dopamine receptor = target: T1, D1 dopamine receptor (Homo sapiens, UniProt P21728); test: PDSP primary binding, D1; conditions: n = 4, read-out: Inhibition (primary binding competition efficacy), D1
# T1 construct: purchased NIMH Psychoactive Drug Screening Program (PDSP)
# Procedure: (§1) For experimental details, please refer to the Psychoactive Drug Screening Program (PDSP) web site http://pdsp.med.unc.edu/.
# (§2) ^a The default concentration for primary binding experiments is 10 µM (n = 4). ^b Negative inhibition represents a stimulation of binding. ^c BZPR: Benzodiazepine Receptors (rat brain site). ^d DOR: Delta Opioid Receptor; KOR: Kappa Opioid Receptor; MOR: Mu Opioid Receptor. ^e DAT: Dopamine Transporter; NET: Norepinephrine Transporter; SERT: Serotonin Transporter. ^f NMDA: N-methyl-D-aspartate receptor.
# [1] = Metabolic stability, liver microsomes, mouse; assay type: in vitro ADME; conditions: CD-1, 1.0E-06 M, 1 h
# 5-HT1A = target: T2, 5-HT1A (Homo sapiens, UniProt P08908); test: PDSP primary binding, 5-HT1A; conditions: n = 4, read-out: Inhibition (primary binding competition efficacy), 5-HT1A
# T2 construct: purchased NIMH Psychoactive Drug Screening Program (PDSP)
# T2 sequence (P08908 whole entry): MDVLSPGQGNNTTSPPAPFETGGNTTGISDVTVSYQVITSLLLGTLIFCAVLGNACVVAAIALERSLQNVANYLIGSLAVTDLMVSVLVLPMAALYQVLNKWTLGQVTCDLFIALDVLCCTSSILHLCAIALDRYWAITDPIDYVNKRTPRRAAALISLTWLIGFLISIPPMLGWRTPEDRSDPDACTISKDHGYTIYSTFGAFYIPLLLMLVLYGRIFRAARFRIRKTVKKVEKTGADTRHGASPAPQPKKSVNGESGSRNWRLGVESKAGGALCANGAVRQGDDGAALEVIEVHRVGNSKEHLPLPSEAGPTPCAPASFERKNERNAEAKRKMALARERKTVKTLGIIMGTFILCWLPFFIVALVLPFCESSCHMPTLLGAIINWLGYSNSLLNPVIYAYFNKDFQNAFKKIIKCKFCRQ
# Procedure: as §1, §2
# Male Balb/CJ mice = test: Forced swim test; assay type: in vivo, mouse
# Description: Male Balb/CJ mice (Jackson Laboratories, Bar Harbor, ME) were used in the forced swim test (FST). Upon receipt, mice were assigned unique identification numbers (tail marked) and were group-housed in OptiMICE ventilated cages. Mice were acclimated to the colony room for at least 1 week prior to drug administration. Mice were 8–10 weeks of age at time of FST.
# Procedures have been previously described (Porsolt et al. [1977]). Naïve mice were individually placed into clear glass cylinders (15 cm tall × 10 cm wide, 1 L beakers) containing 23 ± 1°C water 12 cm deep (∼800 mL). […] Thirty minutes following the administration, mice were placed in the water, and the time the animal spent immobile was recorded over a 6-min trial. Immobility was defined as the postural position of floating in the water. Only one session is required for the forced swim test in mice.
# α2C adrenergic receptor = target: T3, α2C adrenergic receptor (Homo sapiens, UniProt P18825); test: PDSP primary binding, α2C; conditions: n = 4, read-out: Inhibition (primary binding competition efficacy), α2C
# T3 construct: purchased NIMH Psychoactive Drug Screening Program (PDSP)
# T3 sequence (P18825 whole entry): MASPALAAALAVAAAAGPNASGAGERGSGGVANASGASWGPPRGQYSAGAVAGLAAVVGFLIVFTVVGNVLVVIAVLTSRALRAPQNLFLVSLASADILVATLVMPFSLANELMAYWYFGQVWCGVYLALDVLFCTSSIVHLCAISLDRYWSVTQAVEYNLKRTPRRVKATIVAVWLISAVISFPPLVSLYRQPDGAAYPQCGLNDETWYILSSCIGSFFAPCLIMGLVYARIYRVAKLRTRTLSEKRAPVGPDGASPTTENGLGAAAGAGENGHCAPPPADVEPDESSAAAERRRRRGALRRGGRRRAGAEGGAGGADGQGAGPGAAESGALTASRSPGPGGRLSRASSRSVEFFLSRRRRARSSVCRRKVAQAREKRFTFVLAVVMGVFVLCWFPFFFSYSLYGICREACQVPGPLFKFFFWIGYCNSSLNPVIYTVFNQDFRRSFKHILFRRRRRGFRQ
# Procedure: as §1, §2
# GABAB = test: PDSP primary binding, GABAB; conditions: 10 µM, n = 4
# Procedure: as §1, §2
# σ 2 sigma receptor = test: PDSP primary binding, σ 2; conditions: 10 µM, n = 4
# Procedure: as §1, §2
# strain TA100 = test: Ames test, strain TA100; assay type: cell-based
# 5-HT6 = target: T4, 5-HT6 (Homo sapiens, UniProt P50406); test: PDSP primary binding, 5-HT6; conditions: n = 4, read-out: Inhibition (primary binding competition efficacy), 5-HT6
# T4 construct: purchased NIMH Psychoactive Drug Screening Program (PDSP)
# T4 sequence (P50406 whole entry): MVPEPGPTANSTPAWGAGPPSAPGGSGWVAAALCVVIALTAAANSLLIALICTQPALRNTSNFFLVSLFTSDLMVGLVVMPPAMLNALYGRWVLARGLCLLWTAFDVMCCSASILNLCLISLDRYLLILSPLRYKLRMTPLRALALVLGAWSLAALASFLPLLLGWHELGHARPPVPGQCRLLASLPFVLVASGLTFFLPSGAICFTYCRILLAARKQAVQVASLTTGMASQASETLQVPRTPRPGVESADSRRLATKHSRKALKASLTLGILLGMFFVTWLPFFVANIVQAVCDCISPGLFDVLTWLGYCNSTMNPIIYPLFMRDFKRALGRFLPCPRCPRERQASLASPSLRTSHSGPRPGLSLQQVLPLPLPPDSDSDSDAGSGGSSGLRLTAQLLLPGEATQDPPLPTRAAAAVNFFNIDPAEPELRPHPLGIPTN
# Procedure: as §1, §2
# mGluR5 = test: PDSP primary binding, mGluR5; conditions: 10 µM, n = 4
# Procedure: as §1, §2
# [2] = Metabolic stability, liver microsomes, human; assay type: in vitro ADME; conditions: 1.0E-06 M, 1 h
# 5-HT2B = target: T5, 5-HT2B (Homo sapiens, UniProt P41595); test: PDSP primary binding, 5-HT2B; conditions: n = 4, read-out: Inhibition (primary binding competition efficacy), 5-HT2B
# T5 construct: purchased NIMH Psychoactive Drug Screening Program (PDSP)
# T5 sequence (P41595 whole entry): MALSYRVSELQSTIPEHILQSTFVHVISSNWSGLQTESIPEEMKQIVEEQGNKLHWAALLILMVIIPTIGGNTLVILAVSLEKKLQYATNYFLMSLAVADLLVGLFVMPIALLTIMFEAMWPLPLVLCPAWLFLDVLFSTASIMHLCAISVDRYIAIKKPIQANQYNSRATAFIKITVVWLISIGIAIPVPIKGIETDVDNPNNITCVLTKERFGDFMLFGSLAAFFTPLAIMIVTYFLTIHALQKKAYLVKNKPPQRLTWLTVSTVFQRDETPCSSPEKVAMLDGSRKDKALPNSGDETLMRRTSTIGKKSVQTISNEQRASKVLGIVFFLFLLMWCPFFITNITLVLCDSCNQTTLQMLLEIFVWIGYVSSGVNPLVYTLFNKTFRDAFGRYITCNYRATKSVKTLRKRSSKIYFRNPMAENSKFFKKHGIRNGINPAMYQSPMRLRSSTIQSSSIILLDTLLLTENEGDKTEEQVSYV
# Procedure: as §1, §2
# M2 muscarinic receptor = target: T6, M2 muscarinic receptor (Homo sapiens, UniProt P08172); test: PDSP primary binding, M2; conditions: n = 4, read-out: Inhibition (primary binding competition efficacy), M2
# T6 construct: purchased NIMH Psychoactive Drug Screening Program (PDSP)
# T6 sequence (P08172 whole entry): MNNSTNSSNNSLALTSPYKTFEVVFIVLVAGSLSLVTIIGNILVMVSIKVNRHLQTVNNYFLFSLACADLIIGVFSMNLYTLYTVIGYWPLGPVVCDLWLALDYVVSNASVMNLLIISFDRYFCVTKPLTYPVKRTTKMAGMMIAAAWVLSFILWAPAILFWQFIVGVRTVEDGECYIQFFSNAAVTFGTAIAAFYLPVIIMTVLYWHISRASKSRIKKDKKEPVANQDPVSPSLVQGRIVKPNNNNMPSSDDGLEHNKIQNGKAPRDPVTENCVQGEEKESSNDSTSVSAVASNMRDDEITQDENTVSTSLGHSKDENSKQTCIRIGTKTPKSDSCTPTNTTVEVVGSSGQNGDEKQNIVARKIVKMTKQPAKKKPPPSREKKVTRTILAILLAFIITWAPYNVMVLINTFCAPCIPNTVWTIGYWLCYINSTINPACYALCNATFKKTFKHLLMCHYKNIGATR
# Procedure: as §1, §2
# 5-HT3 = target: T7, 5-HT3 (Homo sapiens, UniProt P46098); test: PDSP primary binding, 5-HT3; conditions: n = 4, read-out: Inhibition (primary binding competition efficacy), 5-HT3
# T7 construct: purchased NIMH Psychoactive Drug Screening Program (PDSP)
# T7 sequence (P46098 24-478): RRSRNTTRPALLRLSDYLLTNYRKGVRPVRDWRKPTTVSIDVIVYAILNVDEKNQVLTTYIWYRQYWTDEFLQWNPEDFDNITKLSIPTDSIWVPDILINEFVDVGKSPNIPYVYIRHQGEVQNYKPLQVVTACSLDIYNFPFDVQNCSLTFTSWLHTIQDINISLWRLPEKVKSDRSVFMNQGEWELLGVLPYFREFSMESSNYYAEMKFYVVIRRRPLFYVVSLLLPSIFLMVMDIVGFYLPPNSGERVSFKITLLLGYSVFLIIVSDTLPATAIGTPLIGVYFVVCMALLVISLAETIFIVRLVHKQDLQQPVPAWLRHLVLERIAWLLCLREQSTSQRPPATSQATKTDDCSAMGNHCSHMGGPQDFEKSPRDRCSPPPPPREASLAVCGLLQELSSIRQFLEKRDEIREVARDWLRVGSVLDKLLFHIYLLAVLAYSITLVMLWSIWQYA
# Procedure: as §1, §2
# MOR: Mu Opioid Receptor = target: T8, MOR: Mu Opioid Receptor (Homo sapiens, UniProt P35372); test: PDSP primary binding, MOR; conditions: n = 4, read-out: Inhibition (primary binding competition efficacy), MOR
# T8 construct: purchased NIMH Psychoactive Drug Screening Program (PDSP)
# T8 sequence (P35372 whole entry): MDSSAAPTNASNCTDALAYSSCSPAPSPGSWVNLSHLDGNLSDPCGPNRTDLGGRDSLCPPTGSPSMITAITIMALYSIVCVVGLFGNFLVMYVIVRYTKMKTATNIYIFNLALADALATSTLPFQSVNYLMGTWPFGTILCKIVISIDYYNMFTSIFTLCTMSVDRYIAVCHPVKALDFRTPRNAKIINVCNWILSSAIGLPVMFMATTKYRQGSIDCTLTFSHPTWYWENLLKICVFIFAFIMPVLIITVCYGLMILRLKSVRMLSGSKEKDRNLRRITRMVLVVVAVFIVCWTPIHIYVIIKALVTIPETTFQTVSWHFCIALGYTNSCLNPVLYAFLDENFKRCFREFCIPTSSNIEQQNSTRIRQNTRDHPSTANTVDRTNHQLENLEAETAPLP
# Procedure: as §1, §2
# Balb/CJ mice = test: Acute toxicity / mortality in Balb/C mice; conditions: 300 mg/kg, wild-type Balb/CJ mice
# human α7-nAChRs = target: T9, human α7-nAChRs (Homo sapiens, UniProt P36544); test: Whole-cell current recording, SH-EP1-hα7 cells; assay type: cell-based; conditions: 1 μmol/L
# T9 construct: expressed in transfected cells; host or cells: SH-EP1 human epithelial cells (SH-EP1-hα7)
# T9 sequence (P36544 23-502): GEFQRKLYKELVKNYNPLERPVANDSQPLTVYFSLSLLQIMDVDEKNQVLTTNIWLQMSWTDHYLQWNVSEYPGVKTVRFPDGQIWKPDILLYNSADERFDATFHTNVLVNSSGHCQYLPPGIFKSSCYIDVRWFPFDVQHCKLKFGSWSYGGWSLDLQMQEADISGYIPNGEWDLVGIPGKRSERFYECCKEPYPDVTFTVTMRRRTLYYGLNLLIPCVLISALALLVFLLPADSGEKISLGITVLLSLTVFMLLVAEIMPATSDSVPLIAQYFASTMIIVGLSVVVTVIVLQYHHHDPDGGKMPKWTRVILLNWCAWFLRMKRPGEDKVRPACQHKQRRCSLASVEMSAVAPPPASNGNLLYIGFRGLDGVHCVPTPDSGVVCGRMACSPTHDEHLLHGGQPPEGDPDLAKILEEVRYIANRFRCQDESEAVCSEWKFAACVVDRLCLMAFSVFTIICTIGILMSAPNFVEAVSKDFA
# Procedure: Glass microelectrodes made with 3–5 MΩ resistance between pipette and extracellular solutions were used to obtain >1 GΩ seals on the cell surface just prior to conversion into standard whole-cell current recording mode by applying suction to the pipette. After allowing exchange between the pipette solution and the cytosol for 5 10 min, cells with attached pipettes were lifted gently from the bottom of the culture dish via micromanipulation of the pipette to improve kinetics of solution exchange around the cell. Access resistance (Ra) was measured and accepted if it was less than 20 MΩ. Pipette and whole-cell capacitance were both minimized, and series resistance was compensated routinely to 80%. Cells were voltage-clamped at −60 mV, and inward currents induced by indicated nicotinic agonists at the specified concentrations were measured (200B amplifier; Molecular Devices, Sunnyvale, CA). […] Data acquisition and analyses were conducted using pClamp9.2 (Molecular Devices), and results were plotted by using Origin 5.0 (OriginLab Corp., North Hampton, MA). All experiments were performed at room temperature (22 ± 1°C).
# The external solution for SH-EP1 cell recording contained 120 mmol/L NaCl, 5 mmol/L KCl, 2 mmol/L MgCl2, 2 mmol/L CaCl2, 25 mmol/L D-glucose, and 10 mmol/L HEPES<< HEPES >>, pH 7.4 (Tris-base). For conventional whole-cell recording, the pipette solution contained 110 mmol/L Tris-phosphate dibasic, 28 mmol/L Tris-base, 11 mmol/L EGTA<< EGTA >>, 2 mmol/L MgCl2, 0.5 mmol/L CaCl2, and 4 mmol/L Na-ATP at pH 7.3. Drugs (standard compounds were obtained from Sigma Chemical, St. Louis, MO) were delivered to the recorded cell by a computer-controlled perfusion system (SF-77B Perfusion Fast Step, Warner Instruments Incorporated, A Harvard Bioscience Company, Holliston, MA), allowing the recorded cell can be completely surrounded by the applied drug within 20 msec. The interval between drug applications (2 min) was optimized specifically to ensure stability of nAChR responsiveness (without functional rundown).
# T1 sequence (P21728 whole entry): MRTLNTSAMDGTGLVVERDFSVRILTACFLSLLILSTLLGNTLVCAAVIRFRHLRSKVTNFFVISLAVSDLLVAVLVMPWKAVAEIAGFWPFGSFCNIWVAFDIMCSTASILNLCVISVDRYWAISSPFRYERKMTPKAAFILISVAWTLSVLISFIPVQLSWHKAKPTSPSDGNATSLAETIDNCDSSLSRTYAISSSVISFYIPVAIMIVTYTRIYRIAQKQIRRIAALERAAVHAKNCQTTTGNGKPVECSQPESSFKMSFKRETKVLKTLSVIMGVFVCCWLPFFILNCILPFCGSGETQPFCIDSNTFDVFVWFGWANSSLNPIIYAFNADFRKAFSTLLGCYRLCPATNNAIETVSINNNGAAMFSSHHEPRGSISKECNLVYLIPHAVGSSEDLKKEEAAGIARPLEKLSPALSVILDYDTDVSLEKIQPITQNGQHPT
smiles,measurement,setting,value
"OCCc1cc(-c2cncc(OC[C@@H]3CCN3)c2)on1 [LF-3-88, 2-[5-[5-(2(S)-azetidinylmethoxyl)-3-pyridyl]-3-isoxazolyl]ethanol]",inhibition at 10 µM,D1 dopamine receptor,5.8%
same,Remaining (metabolic stability),[1],81%
same,inhibition at 10 µM,5-HT1A,4.2%
same,immobility in forced swim test,"Male Balb/CJ mice; 1, 3, and 10 mg/kg, p.o.",decreased immobility; also recorded: reduce the immobility dose-dependently
same,immobility in forced swim test,"Male Balb/CJ mice; 1 and 3 mg/kg, i.p., 30 min pretreatment, 6-min trial, vs water",decreased immobility; also recorded: dose-dependently reduced immobility
same,minimum effective dose in forced swim test,Male Balb/CJ mice; i.p.,1 mg/kg
same,inhibition at 10 µM,α2C adrenergic receptor,17.2%
same,"Inhibition (primary binding competition efficacy), GABAB",GABAB,1.1%
same,"Inhibition (primary binding competition efficacy), σ 2",σ 2 sigma receptor,11.5%
same,Ames test Result,"strain TA100; strain TA100 + S9, 1.0E-04 M",Negative
same,Ames test Result,"strain TA100; strain TA100 + S9, 1.0E-05 M",Negative
same,Ames test Result,"strain TA100; strain TA100 + S9, 5.0E-05 M",Negative
same,Ames test Result,"strain TA100; strain TA100 + S9, 5.0E-06 M",Negative
same,Ames test Result,"strain TA100; strain TA100 – S9, 1.0E-04 M",Negative
same,Ames test Result,"strain TA100; strain TA100 – S9, 1.0E-05 M",Negative
same,Ames test Result,"strain TA100; strain TA100 – S9, 5.0E-05 M",Negative
same,Ames test Result,"strain TA100; strain TA100 – S9, 5.0E-06 M",Negative
same,"mutagenic potential (Ames), TA100","strain TA100; with or without S9, 5, 10, 50, or 100 μmol/L",negative
same,inhibition at 10 µM,5-HT6,-1.9%
same,"Inhibition (primary binding competition efficacy), mGluR5",mGluR5,6.6%
same,Remaining (metabolic stability),[2],89%
same,inhibition at 10 µM,5-HT2B,7.9%
same,inhibition at 10 µM,M2 muscarinic receptor,6.8%
same,inhibition at 10 µM,5-HT3,-1%
same,inhibition at 10 µM,MOR: Mu Opioid Receptor,5.7%
same,mortality,Balb/CJ mice,no mortality
same,agonist activity at α7-nAChRs (whole-cell),human α7-nAChRs,no agonist activity
same,effect of coapplication with choline at α7-nAChRs (whole-cell),human α7-nAChRs; 10 mmol/L choline,no effect
same,inhibition of activation by 10 mmol/L choline at α7-nAChRs (whole-cell),human α7-nAChRs; 2-min pretreatment,slightly inhibit; also recorded: only weakly
